Tests used:
Assay type in all cases: biochemical
AiGDS = molecular target: T1, AiGDS (Azadirachta indica, UniProt A0A088CND2); test: GC-MS of geraniol after alkaline phosphatase; settings: HEPES buffer, 30 °C, 2 h
T1 construct: E. coli; solubilised from inclusion bodies by pH 11 to 7 shift; Ni-NTA; homomeric type; mitochondrial targeting predicted
T1 sequence (A0A088CND2 1-420): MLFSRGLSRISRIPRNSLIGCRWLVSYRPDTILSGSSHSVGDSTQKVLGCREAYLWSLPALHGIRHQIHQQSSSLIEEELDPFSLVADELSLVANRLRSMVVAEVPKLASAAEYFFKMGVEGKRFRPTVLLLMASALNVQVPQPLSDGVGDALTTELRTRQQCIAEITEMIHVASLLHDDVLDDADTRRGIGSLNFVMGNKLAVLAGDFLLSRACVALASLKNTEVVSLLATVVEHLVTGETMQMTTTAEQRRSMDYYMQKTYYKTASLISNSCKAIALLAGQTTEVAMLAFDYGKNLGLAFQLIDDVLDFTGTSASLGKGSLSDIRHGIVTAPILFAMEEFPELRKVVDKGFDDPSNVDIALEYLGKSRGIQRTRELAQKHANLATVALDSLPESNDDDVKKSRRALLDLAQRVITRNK

full length AiSQS = molecular target: T2, full length AiSQS (Azadirachta indica, UniProt I1Z8B6); test: GC-MS of squalene; settings: 100 μM FPP, 1 mM NADPH; 30 °C, 2 h
T2 construct: gene SQS1; full-length, printed as 396 residues from 1176 bp ORF (these disagree), 44 kDa; pRSET-C, His6 tag; E. coli BL21 Star(DE3); glycerol/CHAPS, Ni-NTA

truncated AiSQS = molecular target: T3, truncated AiSQS (Azadirachta indica, UniProt I1Z8B6); test: GC-MS of squalene; settings: 100 μM FPP, 1 mM NADPH; 30 °C, 2 h
T3 construct: gene SQS1; truncated: 15 N-terminal and 63 C-terminal residues deleted (end border uncertain, printed 396 residues and 1176 bp ORF disagree); pET28c, His6 tag; E. coli BL21(DE3); Ni-NTA; ~35 kDa

AiFDS = molecular target: T4, AiFDS (Azadirachta indica, UniProt A0A088CNE3); test: GC-MS of (E,E)-farnesol after alkaline phosphatase; settings: HEPES buffer, 30 °C, 2 h
T4 construct: E. coli BL21(DE3); Ni-NTA
T4 sequence (A0A088CNE3 1-342): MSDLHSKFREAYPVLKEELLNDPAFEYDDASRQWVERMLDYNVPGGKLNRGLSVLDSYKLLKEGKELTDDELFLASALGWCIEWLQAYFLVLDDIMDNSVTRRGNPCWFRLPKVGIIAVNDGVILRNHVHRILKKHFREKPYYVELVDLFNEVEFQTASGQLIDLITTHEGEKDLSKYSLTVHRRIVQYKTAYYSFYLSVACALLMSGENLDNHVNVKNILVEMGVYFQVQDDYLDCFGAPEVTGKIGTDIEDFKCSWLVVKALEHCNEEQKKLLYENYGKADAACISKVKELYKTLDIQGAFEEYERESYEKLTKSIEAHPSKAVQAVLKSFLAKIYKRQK

T3 sequence (I1Z8B6 entry or part of it): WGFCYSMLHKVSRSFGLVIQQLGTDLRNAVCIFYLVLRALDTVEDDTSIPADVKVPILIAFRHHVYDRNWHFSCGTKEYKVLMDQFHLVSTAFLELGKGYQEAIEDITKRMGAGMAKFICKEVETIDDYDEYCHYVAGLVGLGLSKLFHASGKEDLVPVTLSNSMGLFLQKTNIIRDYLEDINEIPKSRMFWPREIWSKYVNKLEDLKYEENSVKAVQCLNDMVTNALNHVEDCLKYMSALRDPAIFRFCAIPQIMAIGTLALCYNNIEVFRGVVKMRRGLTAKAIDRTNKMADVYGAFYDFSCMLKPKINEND
T2 sequence (I1Z8B6 entry or part of it): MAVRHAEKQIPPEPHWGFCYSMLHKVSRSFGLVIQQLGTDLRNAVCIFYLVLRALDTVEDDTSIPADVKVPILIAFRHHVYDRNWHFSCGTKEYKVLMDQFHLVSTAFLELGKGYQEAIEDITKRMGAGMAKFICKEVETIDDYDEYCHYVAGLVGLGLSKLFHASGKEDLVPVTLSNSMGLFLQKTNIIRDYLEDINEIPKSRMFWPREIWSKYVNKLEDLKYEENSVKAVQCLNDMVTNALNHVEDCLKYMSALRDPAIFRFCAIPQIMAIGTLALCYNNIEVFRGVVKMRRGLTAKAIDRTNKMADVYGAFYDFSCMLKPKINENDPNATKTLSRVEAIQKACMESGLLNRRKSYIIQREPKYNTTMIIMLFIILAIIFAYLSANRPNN

CC(C)=CCOP(=O)(O)OP(=O)(O)O [DMAPP]
GC-MS of geraniol after alkaline phosphatase (AiGDS; with IPP, DMAPP 100 μM): Purified recombinant AiGDS was incubated with equimolar concentration of IPP and DMAPP

CC(C)=CCC/C(C)=C/CC/C(C)=C/COP(=O)(O)OP(=O)(O)O [FPP]
GC-MS of squalene (full length AiSQS): full length and truncated AiSQS with FPP in the presence of NADPH
GC-MS of squalene (truncated AiSQS): full length and truncated AiSQS with FPP in the presence of NADPH

CC(C)=CCC/C(C)=C/COP(=O)(O)OP(=O)(O)O [GPP]
GC-MS of (E,E)-farnesol after alkaline phosphatase (AiFDS; with IPP, GPP 100 μM): purified short-chain prenyltransferase was incubated with DMAPP/GPP and IPP followed by treatment with alkaline phosphatase

C=C(C)CCOP(=O)(O)OP(=O)(O)O [IPP]
GC-MS of geraniol after alkaline phosphatase (AiGDS; with DMAPP, IPP 100-200 μM): Purified recombinant AiGDS was incubated with equimolar concentration of IPP and DMAPP
GC-MS of (E,E)-farnesol after alkaline phosphatase (AiFDS; with DMAPP or GPP, IPP 100-200 μM): purified short-chain prenyltransferase was incubated with DMAPP/GPP and IPP followed by treatment with alkaline phosphatase

NC(=O)C1=CN([C@@H]2O[C@H](COP(=O)(O)OP(=O)(O)OC[C@H]3O[C@@H](n4cnc5c(N)ncnc54)[C@H](OP(=O)(O)O)[C@@H]3O)[C@@H](O)[C@H]2O)C=CC1 [NADPH]
GC-MS of squalene (full length AiSQS): full length and truncated AiSQS with FPP in the presence of NADPH
GC-MS of squalene (truncated AiSQS): full length and truncated AiSQS with FPP in the presence of NADPH

Source: PMC4559364, “Triterpenoid profiling and functional characterization of the initial genes involved in isoprenoid biosynthesis in neem (Azadirachta indica)” (BMC Plant Biology, 2015)
